According to patent US7897778B2, “Benzamide compounds” (AstraZeneca, priority 2004, dated 2011):

Legend:
[1] = test system: HCT116 cells; assay: In vitro assay of inhibition of proliferation in whole cells (MTS); type: cell-based; conditions: Homo sapiens, HCT-116, 72 hours treatment, read-out: Test (b) IC50
Protocol: (b) In Vitro Assay of Inhibition of Proliferation in Whole Cells
Inhibition of proliferation in whole cells was assayed using the Promega cell titer 96 aqueous proliferation assay (Promega #G5421). The HCT116 cells were seeded in 96 well plates at 1×10^3 cells/well, and allowed to adhere overnight. They were treated with inhibitors for 72 hours. The 20 μl of the tetrazolium dye MTS was added to each well and the plates were reincubated for 3 hours. Absorbance was then measured on a 96 well plate reader at […]. The IC50 values for HDAC inhibitors were determined by performing dose response curves with individual compounds and determining the concentration of inhibitor producing fifty percent decrease in maximal signal (diluent control).

[2] = target: T1, recombinant human HDAC1 (Homo sapiens, UniProt Q13547); assay: In vitro enzyme assay of recombinant HDAC1; type: biochemical; conditions: recombinant human HDAC1 produced in Hi5 insect cells; acetylated histone H4 peptide, Fluor de Lys; read-out: Test (a) IC50
T1 construct: FLAG (C); made in house; host or cells: Hi5 insect cells
T1 sequence (Q13547 whole entry): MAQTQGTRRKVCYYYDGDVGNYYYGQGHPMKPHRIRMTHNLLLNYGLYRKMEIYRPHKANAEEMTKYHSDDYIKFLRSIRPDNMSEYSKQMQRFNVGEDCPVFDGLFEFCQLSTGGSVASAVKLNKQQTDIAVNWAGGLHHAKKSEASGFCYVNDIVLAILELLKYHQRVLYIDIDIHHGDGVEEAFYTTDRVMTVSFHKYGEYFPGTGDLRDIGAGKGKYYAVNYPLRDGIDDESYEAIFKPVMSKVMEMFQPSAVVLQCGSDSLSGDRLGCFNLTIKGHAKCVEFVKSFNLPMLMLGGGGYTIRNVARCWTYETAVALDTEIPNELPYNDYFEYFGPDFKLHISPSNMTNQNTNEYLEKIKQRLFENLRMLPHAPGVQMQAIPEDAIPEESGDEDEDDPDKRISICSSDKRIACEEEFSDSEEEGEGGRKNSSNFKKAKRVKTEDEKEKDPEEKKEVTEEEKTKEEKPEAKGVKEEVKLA
Protocol: (a) In Vitro Enzyme Assay of recombinant HDAC1
HDAC inhibitors were screened against recombinant human HDAC1 produced in Hi5 insect cells. The enzyme was cloned with a FLAG tag at the C-terminal of the gene and affinity purified using Anti-FLAG M2 agarose from SIGMA (A2220).
The deacetylase assays were carried out in a 50 μl reaction. HDAC1 (75 ng of enzyme) diluted in 15 μl of reaction buffer (25 mM Tris HCl (pH 8), 137 mM NaCl, 2.7 mM KCl, 1 mM MgCl2) was mixed with either buffer alone (10 μl) or buffer containing compound (10 μl) for 30 minutes at ambient temperature. The 25 μM acetylated histone H4 peptide (KI 174 Biomol) diluted in 25 μl of buffer was then added to the reaction and incubated for one hour at ambient temperature. The reaction was stopped by addition of an equal volume (50 μl) Fluor de Lys developer (Biomol) containing Trichostatin A at 2 μM. The reaction was allowed to develop for 30 minutes at ambient temperature and then fluorescence measured at an excitation wavelength of 360 nm and an emission wavelength of 465 nm. The IC50 values for HDAC enzyme inhibitors were determined by performing dose response curves with individual compounds and determining the concentration of inhibitor producing fifty percent decrease in the maximal signal (diluent control).

| IC50 [1] [nM] | IC50 [2] [nM] | SMILES |
| --- | --- | --- |
| 289 | 13 | N#Cc1cccnc1-c1ccc(C(=O)Nc2ccccc2N)cc1 [Example 1, N-(2-aminophenyl)-4-(3-cyanopyridin-2-yl)benzamide] |
| 218 | 6 | C[C@@H]1CC[C@@H](C)N1Cc1cnc(-c2ccc(C(=O)Nc3ccccc3N)cc2)c(C#N)c1 [2 (12), N-(2-aminophenyl)-4-(3-cyano-5-{[(2R,5R)-2,5-dimethylpyrrolidin-1-yl]methyl}pyridin-2-yl)benzamide] |
| 211 | 3 | N#Cc1cc(CN2CCC(c3ccccn3)C2)cnc1-c1ccc(C(=O)Nc2ccccc2N)cc1 (centres unmarked) [2 (10), N-(2-aminophenyl)-4-{3-cyano-5-[(3-pyridin-2-ylpyrrolidin-1-yl)methyl]pyridin-2-yl}benzamide] |
| 287 | 12 | CC(C)N(C)Cc1cnc(-c2ccc(C(=O)Nc3ccccc3N)cc2)c(C#N)c1 [5 (15), N-(2-aminophenyl)-4-(3-cyano-5-{[isopropyl(methyl)amino]methyl}pyridin-2-yl)benzamide] |
